From patent EP0057664A2, “Clavam derivatives” (CIBA-GEIGY AG, priority 1981, dated 1982)
Values after ≈ are worked out from the molar mass of the structure shown. “Also recorded” adds a separate entry of the source. Like-named read-outs stand apart in the source and are kept apart here.

What was measured:
Mucor miehei = test: Plate agar diffusion test, minimal inhibitory concentration against Mucor miehei; assay type: cell-based; conditions: Rhizomucor miehei
Description: Die antibakterielle Wirkung kommt sowohl gegen gram-positive wie gram-negative Bakterien zur Geltung, wie z.B. im Platten-Agardiffusionstest in vitro [10 µl/Testrondelle (6 mm ø)] gezeigt werden kann, wo sie bei verschiedenen pathogenen Keimen eine minimale Hemmkonzentration im Bereiche von 1-200 µg/ml zeigen. Von den gegenüber den neuen Verbindungen empfindlichen gram-positiven Bakterien seien z.B. die folgenden genannt: Bacillus cereus, Bacillus subtilis, Clostridium pasteurianum, Corynebacterium rathayi, von den gram-negativen folgende: Agrobacterium tumefaciens, Erwinia amylovorum, Escherichia coli K 12 wild type, Klebsiella aerogenes, Serratia marcescens 13880, Serratia marcescens 30122.
Die antifungische Wirkung tritt praktisch gegenüber den meisten Pilzen auf. So weist das Antibiotikum Tü 1718 und insbesondere die Verbindungen der Formel (IV) im oben genannten Agardiffusionstest eine minimale Hemmkonzentration im Bereiche von ca. 0,1-200 µg/ml gegenüber sehr vielen pathogenen und nicht pathogenen Pilzen, z.B. gegen Pythium debarianum, Mucor hiemalis+, Mucor hiemalis-, Mucor miehei, Trichophyton mentagrophytes, Botrytis cinerea 157, Aspergillus fumigatus, und mehrere andere. So besitzen z.B. die nachstehend aufgeführten spezifischen Verbindungen die folgenden minimalen Hemmkonzentrationen gegenüber Mucor miehei: • Komponente A1 von Antibiotikum Tü 1718, d.h. (2S,5S)-2-(2-Hydroxyäthyl)-clavam = 10 ug/ml
(§1) Bei der […] kann der Plattendiffusionstest dienen, wobei vorzugsweise folgende Testkeime verwendet werden: Clostridium pasteurianum, Escherichia coli und Mucor miehei. Die minimale Hemmkonzentration der Hauptkomponente des Antibiotikums in µg/m1 gegenüber den eben genannten Mikroorganismen ist wie folgt: • Clostridium pasteurianum 50

[1] = Solubility in solvents and water; assay type: physicochemical
Text: (§2) Als Aufbewahrungsmittel eignet sich Chloroform. […] Es ist somit möglich, die Verbindungen in Form all jener pharmazeutischen Präparate zu verwenden, die Wasser enthalten, wie insbesondere von wässrigen Lösungen bei der parenteralen oder oralen Applikation, oder Cremen oder Salben oder Tinkturen bei der topischen Gabe.
(§3) Als Aufbewahrungsmittel eignet sich Chloroform. […] Bei der Dünnschichtchromatographie z.B. an Kieselgel-Alufolien kann die Substanz z.B. durch folgende Sprühreagenzien sichtbar gemacht werden: Ehrlich's Reagenz, rot; Vanillin/ ^H2S04, lindgrün; Ninhydrin, gelb mit violettem Rand.

[2] = Stability solvent-free and in aqueous solution; assay type: physicochemical
Text: as §2, §3

Clostridium pasteurianum = test: Plate diffusion test, minimal inhibitory concentration against Clostridium pasteurianum; assay type: cell-based; conditions: Plattendiffusionstest, read-out: minimale Hemmkonzentration
Text: as §1

[3] = test system: Tumorzellen der Zellinie NS-1; test: Tumour-inhibiting effect on tumour cells of cell line NS-1; assay type: cell-based, Maus; conditions: Zellinie NS-1, compared with Actinomycin C
Text: Das neue Antibiotikum, seine Extrakte und die neuen Verbindungen der Formel (IV) besitzen zudem auch eine tumorhemmende Wirkung, wie in Versuchen an Tumorzellen der Zellinie NS-1, einer Variante der Zelline P 3, die aus Mineralöl-induzierten Plastocytomen der Maus stammen, gezeigt werden kann.

[4] = Agardiffusionstest, read-out: minimale Hemmkonzentration gegenüber Mucor miehei

SMILES | MIC (Mucor miehei; [4]) | Löslichkeit in Chloroform, Aceton, Methanol ([1]; Chloroform, Aceton, Methanol) | Löslichkeit in Wasser ([1]; Wasser) | Stabilität in lösungsmittelfreiem Zustand ([2]; lösungsmittelfrei) | Stabilität in wässerigen Lösungen ([2]; wässerige Lösungen, pH 5-7) | MIC (Clostridium pasteurianum) | MIC (Mucor miehei; Plattendiffusionstest, Mucor miehei, read-out: minimale Hemmkonzentration) | tumorhemmende Wirkung [3]
O=C(COc1ccccc1)OCC[C@H]1CN2C(=O)C[C@@H]2O1 [(2S,5S)-2-(2-Phenoxyacetoxyäthyl)-clavam] | 0.1 µg/mL (≈ 0.343 µM) |  |  |  |  |  |  | 
O=C1C[C@@H]2O[C@@H](CCO)CN12 [Komponente A1 von Antibiotikum Tü 1718, (2S,5S)-2-(2-Hydroxyäthyl)-clavam] | 10 µg/mL (≈ 63.6 µM) | sehr gut; also recorded: gut löslich | weniger gut löslich; also recorded: mässig löslich | beschränkt stabil | einigermassen gute Stabilität | 50 µg/mL (≈ 318 µM) | 10 to 20 µg/mL (≈ 63.6 to 127 µM) | ca. die Hälfte der tumorhemmenden Wirkung von Actinomycin C
